Source: ChEMBL document CHEMBL1949552, “Synthesis and interaction with midkine of biotinylated chondroitin sulfate tetrasaccharides” (Bioorg Med Chem Lett, 2012)

These compounds were tested against T1, Midkine (Homo sapiens, UniProt P21741) (assay: Binding affinity to recombinant midkine after 3 mins).
T1 sequence (P21741 whole entry): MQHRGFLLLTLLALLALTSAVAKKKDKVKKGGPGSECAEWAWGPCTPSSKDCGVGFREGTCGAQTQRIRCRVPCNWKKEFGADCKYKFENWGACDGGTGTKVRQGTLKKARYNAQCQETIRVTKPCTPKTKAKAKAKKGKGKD

Kd | SMILES
2.62 nM | CC(=O)N[C@H]1[C@H](O[C@H]2[C@H](O)[C@@H](O)[C@H](O[C@@H]3[C@@H](NC(C)=O)[C@H](O[C@H]4[C@H](O)[C@@H](O)[C@H](OCCNC(=O)CCOCCOCCOCCOCCNC(=O)CCCC[C@@H]5SC[C@@H]6NC(=O)N[C@@H]65)O[C@@H]4C(=O)O)O[C@H](COS(=O)(=O)O)[C@@H]3OS(=O)(=O)O)O[C@@H]2C(=O)O)O[C@H](COS(=O)(=O)O)[C@H](OS(=O)(=O)O)[C@@H]1O
17.8 nM | CC(=O)N[C@H]1[C@H](O[C@H]2[C@H](O)[C@@H](O)[C@H](O[C@@H]3[C@@H](NC(C)=O)[C@H](O[C@H]4[C@H](O)[C@@H](O)[C@H](OCCNC(=O)CCOCCOCCOCCOCCNC(=O)CCCC[C@@H]5SC[C@@H]6NC(=O)N[C@@H]65)O[C@@H]4C(=O)O)O[C@H](CO)[C@@H]3OS(=O)(=O)O)O[C@@H]2C(=O)O)O[C@H](CO)[C@H](OS(=O)(=O)O)[C@@H]1O
2030 nM | CC(=O)N[C@H]1[C@H](O[C@H]2[C@H](O)[C@@H](O)[C@H](O[C@H]3[C@@H](O)[C@@H](CO)O[C@@H](O[C@H]4[C@H](O)[C@@H](O)[C@H](OCCNC(=O)CCOCCOCCOCCOCCNC(=O)CCCC[C@@H]5SC[C@@H]6NC(=O)N[C@@H]65)O[C@@H]4C(=O)O)[C@@H]3NC(C)=O)O[C@@H]2C(=O)O)O[C@H](CO)[C@H](O)[C@@H]1O
11.6 nM | CC(=O)N[C@H]1[C@H](O[C@H]2[C@H](O)[C@@H](O)[C@H](O[C@@H]3[C@@H](NC(C)=O)[C@H](O[C@H]4[C@H](O)[C@@H](O)[C@H](OCCNC(=O)CCOCCOCCOCCOCCNC(=O)CCCC[C@@H]5SC[C@@H]6NC(=O)N[C@@H]65)O[C@@H]4C(=O)O)O[C@H](CO)[C@@H]3OS(=O)(=O)O)O[C@@H]2C(=O)O)O[C@H](COS(=O)(=O)O)[C@H](OS(=O)(=O)O)[C@@H]1O
